Test results published in patent US20150241410A1, “INHIBITORS OF CENTRAL NERVOUS SYSTEM VASOACTIVE INHIBITORY PEPTIDE RECEPTOR 2” (The Trustees Of Columbia University In The City Of New York, priority 2012, published 2015).
“Also recorded” adds a separate entry of the source. One block for each molecule: values may come before it.

What was measured:
Format in all cases: cell-based
VIPR2 [1] = target: T1, VIPR2 (Homo sapiens, UniProt P41587); test: Inhibition of VIP-induced β-arrestin recruitment (% Activity)
T1 construct: expressed in transfected cells
T1 sequence (P41587 24-438): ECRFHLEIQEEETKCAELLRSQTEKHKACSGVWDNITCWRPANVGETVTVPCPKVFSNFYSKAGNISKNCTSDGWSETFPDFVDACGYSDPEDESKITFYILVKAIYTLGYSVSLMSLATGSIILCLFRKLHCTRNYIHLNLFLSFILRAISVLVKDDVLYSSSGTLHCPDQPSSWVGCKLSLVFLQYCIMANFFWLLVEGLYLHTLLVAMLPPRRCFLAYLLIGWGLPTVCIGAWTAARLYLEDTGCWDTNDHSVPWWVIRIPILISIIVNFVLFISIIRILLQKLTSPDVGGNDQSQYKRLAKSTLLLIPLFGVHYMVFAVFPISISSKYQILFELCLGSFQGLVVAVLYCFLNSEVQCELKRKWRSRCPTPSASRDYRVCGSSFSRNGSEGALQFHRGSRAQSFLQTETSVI
Source text: In a further non-limiting embodiment of the invention, the ability of a compound to inhibit VIPR2 GPCR activity may be tested, for example, using the PathHunter® eXpress 3-Arrestin GPCR system (Discoverx Corporation, Fremont, Calif., US), as used by Chu et al., 2010, Molecular Pharmacol. 7795-101. In this assay, J-Arrestin is fused to the “Enzyme Acceptor” (“EA”), an N-terminal deletion mutant of β-gal, and the GPCR of interest is fused to a smaller (42 amino acids), weakly complementing portion of the β-gal enzyme (termed “ProLink™”). In cells that stably express these fusion proteins, the interaction of β-Arrestin and the GPCR following ligand stimulation forces the complementation of the two β-gal fragments resulting in the formation of a functional enzyme that converts substrate to detectable signal. In the absence of an interaction between the GPCR and β-Arrestin, the enzyme activity is low due to the low affinity of the two enzyme fragments. For example, a nucleic acid encoding VIPR2, for example hVIPR2, may be cloned into the ProLink vector (DiscoveRx) for GPCR-ProLink fusion protein production. Parental HEK293 cells that stably express β-arrestin2-β-gal-EA fusion protein (DiscoveRx) may be detached and transiently transfected with the VIPR2-containing vector using Fugene6 transfection reagent in suspension mode. Transfected cells in assay medium may be plated into test plates, for example at 15,000 cells/25 μl/well. After overnight incubation, 500 n1 of an inhibitor or test inhibitor may be introduced into the test plate followed by 2 h incubation at 37° C., 5% CO2. Flash detection reagents may be added at 12.5 μl/well. After 5 min to 1 h of room-temperature incubation, the cell plates may be read on CLIPR (PerkinElmer Life and Analytical Sciences) or Acquest (Molecular Devices, Sunnyvale, Calif.) for luminescence signal.
(§1) A series of compounds were prepared using a synthetic method analogous to that set forth in Scheme 1, above, and then tested for their ability to inhibit VIP-induced cAMP elevation and β-arrestin recruitment.
(§2) A series of compounds were prepared using a synthetic method analogous to that set forth in Scheme 1, above, and then tested for their ability to inhibit VIP-induced cAMP elevation and β-arrestin recruitment, as described herein (Discoverx Corporation, Fremont, Calif., US). Compound activities were also tested in a BRET-based assay, as described herein. The results are shown below in Tables 1-4, above.

VIPR2 [2] = target: T1, VIPR2; test: Inhibition of VIP-induced cAMP elevation (% Activity)
Source text: In a further non-limiting embodiment of the invention, the ability of a compound to inhibit VIPR2 and […] may be measured using a Homogeneous Time-Resolved Fluorescence (“HTRF® assay; Cisbio Bioassays) as used in Chu et al., 2010, Molecular Pharmacol. 7795-101. In a method as used in Chu et al., 2010, Molecular Pharmacol. 7795-101, HEK293 cells may be transfected with nucleic acid encoding VIPR2, for example human VIPR2 (“hVIPR2”), for example comprised in a vector such as pCDNA3.1 vector. Successful transformnnants may then be selected, for example using 800 μg/ml G418. Clonal stable cell lines may then be generated by limited dilution to single cells and then may be clonally expanded and tested for VIP-dependent cAMP response. For the cAMP assay, about 3000-15,000 cells (in about 4-25 μl) may be placed in a well of an assay plate. The next day, inhibitor or test inhibitor and VIP may be added in a volume about 1-2 percent of the initial volume. Assay plates may then be returned to a cell incubator for 30 min before addition of a one-half volume of cAMP conjugate and, relative to the amount of cAMP conjugate, an equal volume of anti-cAMP conjugate (Cisbio). After at least 1 h of room-temperature incubation, HTRF signal may be read, for example using Viewlux or EnVision (PerkinElmer Life and Analytical Sciences, Waltham, Mass.). The ratio of […] at 665 nm and 620 nm times 10,000 may be calculated and plotted.
as §1, §2

VIPR2 [3] = target: T1, VIPR2; test: BRET-based VIPR2 activation assay (CAMYEL cAMP sensor, CHO cells, VIP background); settings: for IC50: Table 3, read-out: IC50 (from BRET)
Procedure: FIG. 5A-B. Results of BRET-based VIPR2 activation assays in cells expressing both the VIPR2 receptor and CAMYEL (see FIG. 1A for schematic). a) Inhibitory dose-response curves on treatment of CHO cells with increasing concentrations of a batch of antagonists against a background of VIP activation (VIP=5 nM).
In such a system, a detector cell is used which expresses both the VIPR2 receptor and “CAMYEL,” a YFP-Epac-RLuc8 BRET sensor construct. This construct includes Epac1, a guanine nucleotide exchange factor activated by direct binding of cAMP, fused with an enhanced YFP and Renilla luciferase 8 (Rluc8) allowing BRET upon cAMP-induced conformational changes (Jiang et al., 2007, J Biol Chem. 282:10576-10584). In response to elevated cAMP levels, there is a conformational change in Epac and therefore a change in the proximity of the fused chromophores, Rluc8 and YFP, resulting in measurable energy transfer. Coexpression of this BRET construct with VIPR2. optionally tagged at the N-terminus with a signal peptide and FLAG epitope (SF-VIPR2), for example in HEK293 cells, allows for detection of a VIPR2-specific response to cAMP. BRET readout may be calculated by quantifying the ratio of the light emitted by the acceptor, YFP (λ=525 nm), over the emission from the donor, RLuc8 (λ=485 nm). The proximity of the donor and acceptor, and therefore the BRET ratio, decreases in the presence of cAMP. In non-limiting specific embodiments, a stable cell line may be generated for this assay using the Flp-In T-Rex system in HEK293 cells. This system allows site-specific single copy integration of the gene of interest and control of expression levels using the Tet-repressor site making receptor expression tetracycline-inducible. For example, a CAMYEL and VIPR2 expressing line may be induced with 0.01 μg/ml tetracycline, then, 24 hours later cells may be collected and distributed into 96-well plates. After treatment with candidate inhibitor compound, for example at 5, 1 and 0.5 μM concentrations, cells may be incubated with the light emitting luciferin, coelenterazine H, for 5 min and incubated for 5 min with VIP at increasing concentrations, for example ranging from 100 pM to 10 μM. The fluorescence and luminescence may then be quantified, for example using a PHERAstar (BMG) plate reader. […] Alternatively, analogous experiments may be performed using human cells harvested from a patient having a VIPR2 copy number variation, for example (but not by way of limitation) pluripotent stem cells prepared from such a patient and then transfected with a CAMYEL construct.
as §2
Numerous cellular assays were developed that were able to detect VIP responses absent of interference from non-specific vasopressin receptors using this CHO based system. VIPR2 is a Gs coupled receptor. Activation of VIPR2 by VIP leads to both an elevation in cAMP signaling and the recruitment of β-arrestin. A variety of combinations can be transiently transfect into these CHO cells for the assessment of cellular responses to VIP. For the BRET readout CHO cell lines expressing an YFP-Epac-RLuc8 (CAMYEL) BRET sensor were used to detect changes in cAMP. This construct includes Epac1, a guanine nucleotide exchange factor activated by direct binding of cAMP, fused to an enhanced YFP and RLuc8 allowing a change in BRET upon cAMP-induced conformational changes. The key for medium to high throughput screening assays is the use of stable cell lines allowing the continuous assaying of multiple compounds with the ability to generate large numbers of cells for rapid use. […]

Structure (SMILES): O=C(N[C@H]1c2ccccc2C[C@H]1O)[C@H](Cc1ccccc1)C[C@H](O)CNS(=O)(=O)c1ccc(C(=O)N2CCCCC2)cc1 [Compound X101]
inhibition at 0.5 µM (VIPR2 [2]; Batch 3): -5.3%

Structure (SMILES): Cc1ccc(S(=O)(=O)NC[C@@H](O)C[C@@H](Cc2ccccc2)C(=O)N[C@H]2c3ccccc3C[C@H]2O)cc1C [Compound X116]
IC50 (VIPR2 [3]): 13.3 µM

Structure (SMILES): O=C([C@@H](Cc1ccccc1)C[C@H](O)CNS(=O)(=O)c1ccc([N+](=O)[O-])cc1)N1CCOCC1 [Compound B9B]
inhibition at 1 µM (VIPR2 [2]; 1 μM, Batch 2): -10.4%

Structure (SMILES): O=C(N[C@H]1c2ccccc2C[C@H]1O)[C@H](Cc1ccccc1)C[C@H](O)CNS(=O)(=O)c1ccc([N+](=O)[O-])cc1 [Compound 1, reference compound]
shift of VIP dose-response curve (VIPR2 [3]; increasing doses of compound (FIG. 1C)): rightward shift

Structure (SMILES): O=C(N[C@H]1c2ccccc2C[C@H]1O)[C@H](Cc1ccccc1)C[C@H](O)CNS(=O)(=O)c1ccc(C(F)(F)F)cc1 [F]
VIPR2 inhibition in BRET-based assay, in words (VIPR2 [3]; compared with Compound 1 or other compounds (FIG. 1C, FIG. 5B)): greater activity than Compound 1; also recorded: greater effect on VIPR2 inhibition than Compound 1

Structure (SMILES): O=C(NC1CCCc2ccccc21)[C@@H](Cc1ccccc1)C[C@H](O)CNS(=O)(=O)c1ccc([N+](=O)[O-])cc1 (stereo partly shown) [Compound B13B]
% activity (β-arrestin recruitment) at 1 µM (VIPR2 [1]; 1 μM, Batch 2): 5.9%

Structure (SMILES): O=C([C@H](Cc1ccccc1)C[C@H](O)CNS(=O)(=O)c1ccc([N+](=O)[O-])cc1)N1CCOCC1 [Compound B9A]
inhibition at 0.5 µM (VIPR2 [2]; Batch 2): 3.8%

Structure (SMILES): COc1cc(C(=O)NC[C@@H](O)C[C@@H](Cc2ccccc2)C(=O)N[C@H]2c3ccccc3C[C@H]2O)cc(OC)c1OC [H]
inhibition at 1 µM (VIPR2 [1]; 1 μM, Batch 1): 3.2%

Structure (SMILES): O=C([C@@H](Cc1ccccc1)C[C@H](O)CNS(=O)(=O)c1ccc([N+](=O)[O-])cc1)N1CCCCC1 [Compound B18B]
inhibition at 0.5 µM (VIPR2 [1]; Batch 2): 9.5%

Now from value to molecule:

inhibition at 0.5 µM (VIPR2 [1]; Batch 3): 3.4%
Structure (SMILES): CCC(=O)Nc1ccc(S(=O)(=O)NC[C@@H](O)C[C@@H](Cc2ccccc2)C(=O)N[C@H]2c3ccccc3C[C@H]2O)cc1 [Compound X091]

IC50 (VIPR2 [3]): 152 µM
Structure (SMILES): CCC(C)c1ccc(S(=O)(=O)NC[C@@H](O)C[C@@H](Cc2ccccc2)C(=O)N[C@H]2c3ccccc3C[C@H]2O)cc1 (stereo partly shown) [Compound X117]

IC50 (VIPR2 [3]): 152 µM
Structure (SMILES): O=C(N[C@H]1c2ccccc2C[C@H]1O)[C@H](Cc1ccccc1)C[C@H](O)CNS(=O)(=O)c1ccc(OC(F)(F)F)cc1 [Compound X112]

IC50 (VIPR2 [3]): 4.2 µM
Structure (SMILES): CCCOc1ccc(S(=O)(=O)NC[C@@H](O)C[C@@H](Cc2ccccc2)C(=O)N[C@H]2c3ccccc3C[C@H]2O)cc1 [Compound X118]

IC50 (VIPR2 [3]): 45.8 µM
Structure (SMILES): CCC(C)Oc1ccc(S(=O)(=O)NC[C@@H](O)C[C@@H](Cc2ccccc2)C(=O)N[C@H]2c3ccccc3C[C@H]2O)cc1 (stereo partly shown) [Compound X120]

IC50 (VIPR2 [3]): 4.2 µM
Structure (SMILES): CCCc1ccc(S(=O)(=O)NC[C@@H](O)C[C@@H](Cc2ccccc2)C(=O)N[C@H]2c3ccccc3C[C@H]2O)cc1 [Compound X113]

IC50 (VIPR2 [3]): 13.3 µM
Structure (SMILES): CS(=O)(=O)c1ccc(S(=O)(=O)NC[C@@H](O)C[C@@H](Cc2ccccc2)C(=O)N[C@H]2c3ccccc3C[C@H]2O)cc1 [Compound X111]
